# Read-outs that look alike come from different tables or passages of the source.
# How the values were obtained:
# [1] = system: LNCaP (AR+); experiment: ATP-dependent proliferation assay with 10 nM DHT, prostate cancer cells (Examples 1, 2); format: cell-based, human
# Method: (§1) The experiment was performed to test and to define the antitumor activity in vitro of cortexolone 17α-benzoate on LNCaP (AR^+) and PC3 (AR^−), representative of Prostatic cancer cell lines with Androgen receptor positive or negative expression, respectively. The experimental method consisted of: • 1. […] After 24 hrs, 10 nM DHT (dihydrotestosterone) with or without anti-androgen compounds, or DMSO vehicle (negative control) was added to the cultures. • 3.
# (§2) Data from Experiment 1 was fitted through sigmoidal dose response curves and analyzed using Prizm statistical analysis software. […] The results from 2 sets of experiments follow.
# as §1, with “define” for “define the”, “17α-valerate-21-propionate” for “17α-benzoate”, “hours,” for “hrs,”
# [2] = system: PC3 (AR−); experiment: as above; format: cell-based, human
# Method: as §1, §2
# as §1, with “define” for “define the”, “17α-valerate-21-propionate” for “17α-benzoate”, “hours,” for “hrs,”
# [3] = system: MiaPaca2 (AR low); experiment: ATP-dependent proliferation assay with 10 nM DHT, pancreatic cancer cells (Examples 3, 4, 7); conditions: for TI on Resting PBMC: IC50 resting PBMC / IC50 MiaPaca2; for TI on Stimulated PBMC: IC50 stimulated PBMC / IC50 MiaPaca2
# Method: (§3) The experimental method consisted of: • 1. […] After 24 hrs, 10 nM DHT (dihydrotestosterone) with or without anti-androgen compounds, or DMSO vehicle (negative control) was added to the cultures. • 3.
# (§4) Data from Experiment 1 were fitted through sigmoidal dose response curves and analyzed using Prizm statistical analysis software. […] The results from 2 sets of experiments follow.
# (§5) Data from Experiment 1 was fitted through sigmoidal dose response curves and analyzed using Prizm statistical analysis software.
# [4] = system: Panc1 (AR+); experiment: as above; conditions: for TI on Resting PBMC: IC50 resting PBMC / IC50 Panc1; for TI on Stimulated PBMC: IC50 stimulated PBMC / IC50 Panc1
# Method: as §3, §4, §5
# [5] = system: HT29; experiment: MTT colorimetric assay on epithelial intestinal cancer cells; format: cell-based; conditions: for Therapeutic Index = IC50 stimulated PBMC/IC50 cancer cell: Table VII; for Therapeutic Index (TI), Resting PBMC: IC50 resting PBMC / IC50 HT29; for Therapeutic Index (TI), Stimulated PBMC: IC50 stimulated PBMC / IC50 HT29
# Method: The experiment was performed to test and define anticancer activity in vitro of Cortexolone 17α-benzoate and cortexolone 17α-valerate, 21-propionate on cell lines representatives of epithelial intestinal tumours, namely HT29. The experiment method consisted in: • 1. Monolayer HT-29 cells were plated in: 96-wells plates at the density of 2×10^4 cells/mL. The cells plated were kept at 37° C. in 5% CO2 and left to attach for 24 h. • 2. […] After 72 h of treatment, the MTT colorimetric assay was performed.
# [6] = system: BxPC3; experiment: In vitro proliferation, larger panel (Example 14); conditions: for Therapeutic Index = IC50 stimulated PBMC/IC50 cancer cell: Table VII
# Excerpt: (§6) Data shown in Table I were fitted through sigmoidal dose response curves and analyzed using Prizm statistical.
# [7] = system: MCF7; experiment: In vitro proliferation / cytotoxic assay on breast cancer cells (Examples 14, 25); conditions: for Therapeutic Index = IC50 stimulated PBMC/IC50 cancer cell: Table VII
# Method: as §6
# For the cytotoxic assay, cells were seeded in 96-well flat bottom culture plates in media containing charcoal stripped serum. After 24 hours, test compounds were added to the cells. DMSO was used as the vehicle negative control and RU486 as the positive control. After 72 hour incubation, cells were harvested and lysed to determine cell viability using the Cell Titer Glow assay.
# [8] = system: 7 cancer cell lines; experiment: Therapeutic index over a panel of cancer cell lines; format: cell-based; conditions: average over the cancer cell lines of Table VII
# Method: The compound toxicity was determined as follow:
# Therapeutic Index=Safety/Potency=IC50 stimulated PBMC/IC50 cancer cell
# [9] = Experiment 1, 0 = higher toxicity in PBMC
# [10] = Homo sapiens, HT-29, 72 h, read-out: Inhibition (%) on HT29
structure (smiles),measurement,setting,value
"C[C@]12CCC(=O)C=C1CC[C@@H]1[C@@H]2CC[C@@]2(C)[C@H]1CC[C@]2(OC(=O)c1ccccc1)C(=O)CO [CB-03-06, cortexolone 17α-benzoate]",IC50,"[1]; Homo sapiens, LNCaP/AR",12 µM
same,IC50,"[1]; Homo sapiens, LNCaP/AR, 72 h",12 µM
same,IC50,"[2]; Homo sapiens, PC3/AR",28 µM
same,IC50,"[2]; Homo sapiens, PC3/AR, 72 h",29 µM
same,IC50,"[3]; Homo sapiens, MIA PaCa-2, 72 h, MiaPaca2, Experiment 1, sigmoidal dose response fit, 10 nM DHT, 3 days",23 µM
same,IC50,"[3]; Homo sapiens, MIA PaCa-2, MiaPaca2, Example 7, Experiment 1",17 µM
same,IC50,"[3]; Homo sapiens, MIA PaCa-2, MiaPaca2, Example 7, Experiment 2",20 µM
same,IC50,"[3]; Homo sapiens, MIA PaCa-2, MiaPaca2, Experiment 2, nonlinear regression least squares fit, additional experiments",20 µM
same,TI on Resting PBMC,[3]; [9],6
same,TI on Resting PBMC,[3]; Experiment 2,4
same,TI on Stimulated PBMC,[3]; [9],7
same,TI on Stimulated PBMC,[3]; Experiment 2,5
same,IC50,"[4]; Homo sapiens, PANC-1, 72 h, Panc1, Experiment 1, sigmoidal dose response fit, 10 nM DHT, 3 days",30 µM
same,IC50,"[4]; Homo sapiens, PANC-1, Panc1, Example 7, Experiment 1",23 µM
same,IC50,"[4]; Homo sapiens, PANC-1, Panc1, Example 7, Experiment 2",28 µM
same,IC50,"[4]; Homo sapiens, PANC-1, Panc1, Experiment 2, nonlinear regression least squares fit, additional experiments",28 µM
same,TI on Resting PBMC,[4]; [9],4
same,TI on Resting PBMC,[4]; Experiment 2,3
same,TI on Stimulated PBMC,[4]; [9],5
same,TI on Stimulated PBMC,[4]; Experiment 2,3
same,Therapeutic Index = IC50 resting PBMC/IC50 cancer cell,"[5]; HT29, Table IV",6
same,Therapeutic Index = IC50 stimulated PBMC/IC50 cancer cell,[5]; HT29,6
same,IC50,"[5]; Homo sapiens, HT-29, 72 h, read-out: IC50 Calculated",16 µM
same,inhibition at 0.8 µM,[5]; [10],-1.55%
same,inhibition at 4 µM,[5]; [10],20.4%
same,inhibition at 20 µM,[5]; [10],53.6%
same,inhibition at 100 µM,[5]; [10],92.2%
same,inhibition at 500 µM,[5]; [10],92.3%
same,IC50,"[5]; Homo sapiens, HT-29, read-out: In vitro proliferation IC50",16 µM
same,IC50,"[5]; Homo sapiens, HT-29, read-out: in vitro proliferation IC50",13 µM
same,"Therapeutic Index (TI), Resting PBMC",[5]; Experiment 1,6
same,"Therapeutic Index (TI), Resting PBMC",[5]; Experiment 2,5
same,"Therapeutic Index (TI), Stimulated PBMC",[5]; Experiment 1,7
same,"Therapeutic Index (TI), Stimulated PBMC",[5]; Experiment 2,6
same,Therapeutic Index = IC50 resting PBMC/IC50 cancer cell,"[6]; BxPC3, Table IV",3
same,Therapeutic Index = IC50 stimulated PBMC/IC50 cancer cell,[6]; BxPC3,3
same,IC50,"[6]; Homo sapiens, BXPC-3, read-out: In vitro proliferation IC50",28 µM
same,IC50,"[6]; Homo sapiens, BXPC-3, read-out: in vitro proliferation IC50",28 µM
same,IC50,"[7]; Homo sapiens, MCF7, 72 h",25 µM
same,IC50,"[7]; Homo sapiens, MCF7, read-out: In vitro proliferation IC50",25 µM
same,IC50,"[7]; Homo sapiens, MCF7, read-out: in vitro proliferation IC50",25 µM
same,Therapeutic Index = IC50 resting PBMC/IC50 cancer cell,"[7]; MCF7, Table IV",4
same,Therapeutic Index = IC50 stimulated PBMC/IC50 cancer cell,[7]; MCF7,4
same,"Therapeutic Index = IC50 stimulated PBMC/IC50 cancer cell, AVERAGE",[8],5
"CCCCC(=O)O[C@]1(C(=O)COC(=O)CC)CC[C@H]2[C@@H]3CCC4=CC(=O)CC[C@]4(C)[C@H]3CC[C@@]21C [CB-03-10, cortexolone 17α-valerate-21-propionate]",IC50,"[1]; LNCaP, Experiment 1, sigmoidal dose response fit, 10 nM DHT, 3 days, read-out: IC50",13 µM
same,IC50,"[1]; LNCaP, Experiment 2, nonlinear regression least squares fit, additional experiments, read-out: IC50",10 µM
same,IC50,"[2]; PC3, Experiment 1, sigmoidal dose response fit, 10 nM DHT, 3 days, read-out: IC50",55 µM
same,IC50,"[2]; PC3, Experiment 2, nonlinear regression least squares fit, additional experiments, read-out: IC50",50 µM
same,TI on Resting PBMC,[3]; [9],3
same,TI on Resting PBMC,[3]; Experiment 2,3
same,TI on Stimulated PBMC,[3]; [9],3
same,TI on Stimulated PBMC,[3]; Experiment 2,3
same,IC50,"[3]; MiaPaca2, Example 7, Experiment 1",34 µM
same,IC50,"[3]; MiaPaca2, Example 7, Experiment 2",37 µM
same,IC50,"[3]; MiaPaca2, Experiment 1, sigmoidal dose response fit, 10 nM DHT, 3 days",43 µM
same,IC50,"[3]; MiaPaca2, Experiment 2, nonlinear regression least squares fit, additional experiments",37 µM
same,TI on Resting PBMC,[4]; [9],2
same,TI on Resting PBMC,[4]; Experiment 2,2
same,TI on Stimulated PBMC,[4]; [9],2
same,TI on Stimulated PBMC,[4]; Experiment 2,2
same,IC50,"[4]; Panc1, Example 7, Experiment 1",68 µM
same,IC50,"[4]; Panc1, Example 7, Experiment 2",60 µM
same,IC50,"[4]; Panc1, Experiment 1, sigmoidal dose response fit, 10 nM DHT, 3 days",66 µM
same,IC50,"[4]; Panc1, Experiment 2, nonlinear regression least squares fit, additional experiments",60 µM
same,Inhibition (%) on HT29,"[5]; 0.8 micromolar, 72 h",0.44%
same,Inhibition (%) on HT29,"[5]; 4 micromolar, 72 h",14.23%
same,Inhibition (%) on HT29,"[5]; 20 micromolar, 72 h",25.49%
same,Inhibition (%) on HT29,"[5]; 100 micromolar, 72 h",89.77%
same,Inhibition (%) on HT29,"[5]; 500 micromolar, 72 h",92.10%
same,IC50,"[5]; HT29, MTT, 72 h, read-out: IC50 Calculated",34.2 µM
same,Therapeutic Index = IC50 resting PBMC/IC50 cancer cell,"[5]; HT29, Table IV",3
same,IC50,"[5]; HT29, Table IV, read-out: In vitro proliferation IC50",34 µM
same,Therapeutic Index = IC50 stimulated PBMC/IC50 cancer cell,[5]; HT29,3
same,"Therapeutic Index (TI), Resting PBMC",[5]; Experiment 1,3
same,"Therapeutic Index (TI), Resting PBMC",[5]; Experiment 2,4
same,"Therapeutic Index (TI), Stimulated PBMC",[5]; Experiment 1,3
same,"Therapeutic Index (TI), Stimulated PBMC",[5]; Experiment 2,3
same,Therapeutic Index = IC50 resting PBMC/IC50 cancer cell,"[6]; BxPC3, Table IV",3
same,Therapeutic Index = IC50 stimulated PBMC/IC50 cancer cell,[6]; BxPC3,3
same,IC50,"[6]; read-out: In vitro proliferation IC50, BxPC3, Table IV",30 µM
same,Therapeutic Index = IC50 resting PBMC/IC50 cancer cell,"[7]; MCF7, Table IV",3
same,Therapeutic Index = IC50 stimulated PBMC/IC50 cancer cell,[7]; MCF7,3
same,IC50,"[7]; read-out: In vitro proliferation IC50, MCF7, Table IV",28 µM
same,"Therapeutic Index = IC50 stimulated PBMC/IC50 cancer cell, AVERAGE",[8],4

# From patent publication US10231980B2, “Cortexolone 17alpha-benzoate for use in the treatment of tumours” (COSMO TECHNOLOGIES LTD., priority 2014, dated 2019)
